Measured values reported in paper PMC8617031, “Development of a BCL-xL and BCL-2 dual degrader with improved anti-leukemic activity,” (Nature Communications, 2021).
Values joined by “and” are separate entries in the source; they are usually repeats but may differ in a detail not shown here. Identical values can stand only once.

How the values were obtained:
[1] = target: T1, BCL-xL/PROTAC/VHL-ELOC-ELOB (VCB) ternary complex (Homo sapiens, UniProt P40337+Q07817); assay: AlphaLISA ternary complex formation, cell-free, BCL-xL; type: binding
T1 construct: pGEX-6P-1-VHL(54-213) (pDL2200) was constructed through Gibson assembly method; made in house; host or cells: bacterial culture (LB broth, IPTG induction)
Method in brief: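 Cell-free AlphaLISA: 5 nM His-tagged BCL-xL or BCL-2 plus 5 nM GST-VCB incubated with fourfold serially diluted compound 30 min at room temperature. Glutathione donor and His acceptor beads (20 µg/ml each) then added for 15 and 45 min; AlphaLISA signal plotted against compound concentration.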

293T cells = assay: Viability (MTS) of 293T cells; type: cell-based, human; settings: for 293T cell viability, MTS absorbance 490 as percent of control, mean of three wells, left block of Plate 29: mean of 3 wells, Plate 29 normalised with blank 0.332667 and control 0.923167 of Plate 30; for 293T cell viability, MTS absorbance 490 as percent of untreated control, single replicate well: normalised to own plate
Protocol: Suspension cells were treated 30 min after seeding, whereas adherent cells were allowed to adhere overnight and were then treated. Compound treatments were prepared in complete cell culture medium and 100 µl of 2× treatment-containing medium were added to each well. Complete cell culture medium without treatment was added in control wells, and wells containing medium without cells served as background. The outer wells of the 96-well plate were not used for treatment and were filled with 250 µl of PBS to reduce evaporation of medium from inner wells. Each compound and/or combination was tested at nine different concentrations with three replicates. The cell viability was measured after 72 h by tetrazolium-based MTS assay. MTS reagent (2 mg ml^–1 stock; cat. no. G1111, Promega) was freshly supplemented with phenazine methosulfate (PMS, 0.92 mg ml^–1 stock, cat. no. P9625, Sigma-Aldrich) in 20:1 ratio, and 20 µl of this mixture was added to each control and treatment well. The cells were incubated for 4 h at 37 °C and 5% CO2, and then the absorbance was recorded at 490 nm using Biotek’s Synergy Neo2 multimode plate reader (Biotek). The average absorbance value of background wells was subtracted from absorbance value of each control and treatment well, and percent cell viability ((At/A0) × 100)) was determined in each treatment well, where At is the absorbance value of the treatment well and A0 is the average absorbance value of control wells after background subtraction. The data were expressed as average percentage cell viability and fitted in non-linear regression curves using GraphPad Prism 7 (GraphPad Software, La Jolla, CA, USA).

T1 sequence (Q07817 1-212 limits assumed): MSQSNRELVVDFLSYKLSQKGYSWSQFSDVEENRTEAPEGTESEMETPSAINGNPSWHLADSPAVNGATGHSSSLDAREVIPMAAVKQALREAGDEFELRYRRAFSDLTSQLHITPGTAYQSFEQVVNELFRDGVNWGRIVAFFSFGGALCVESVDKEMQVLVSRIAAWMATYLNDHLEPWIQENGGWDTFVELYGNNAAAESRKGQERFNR
T1 sequence (P40337 54-213 limits assumed): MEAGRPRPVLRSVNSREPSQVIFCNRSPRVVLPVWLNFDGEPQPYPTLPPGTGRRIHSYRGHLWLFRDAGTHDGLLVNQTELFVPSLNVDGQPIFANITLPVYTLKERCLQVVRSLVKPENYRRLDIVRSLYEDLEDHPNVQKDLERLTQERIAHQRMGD
T1 sequence (Q15369 17-112 partner limits assumed): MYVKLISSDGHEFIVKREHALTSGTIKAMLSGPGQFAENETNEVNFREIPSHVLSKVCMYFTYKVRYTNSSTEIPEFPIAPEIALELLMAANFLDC
T1 sequence (Q15370 whole entry partner): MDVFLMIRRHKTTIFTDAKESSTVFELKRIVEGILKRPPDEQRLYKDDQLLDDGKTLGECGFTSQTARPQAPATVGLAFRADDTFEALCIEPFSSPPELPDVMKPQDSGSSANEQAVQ

Cc1ncsc1-c1ccc([C@H](C)NC(=O)[C@@H]2C[C@@H](O)CN2C(=O)[C@@H](NC(=O)CCCCCC(=O)N2CCN(CC[C@H](CSc3ccccc3)Nc3ccc(S(=O)(=O)NC(=O)c4ccc(N5CCN(CC6=C(c7ccc(Cl)cc7)CCC(C)(C)C6)CC5)cc4)cc3S(=O)(=O)C(F)(F)F)CC2)C(C)(C)C)cc1 [DT2216]
AlphaLISA signal, BCL-xL/PROTAC/VCB ([1]; compound 0.19 nM, Fig. 3e raw Alpha reads): 24660 and 20115
AlphaLISA signal, BCL-xL/PROTAC/VCB ([1]; compound 0.191 nM, Fig. 2c raw Alpha reads): 16719 and 10405
AlphaLISA signal, BCL-xL/PROTAC/VCB ([1]; compound 0.76 nM, Fig. 3e raw Alpha reads): 36507 and 38317
AlphaLISA signal, BCL-xL/PROTAC/VCB ([1]; compound 0.763 nM, Fig. 2c raw Alpha reads): 18311 and 16968
AlphaLISA signal, BCL-xL/PROTAC/VCB ([1]; compound 3.05 nM, Fig. 3e raw Alpha reads): 66449 and 60221
AlphaLISA signal, BCL-xL/PROTAC/VCB ([1]; compound 3.052 nM, Fig. 2c raw Alpha reads): 25910 and 22328
AlphaLISA signal, BCL-xL/PROTAC/VCB ([1]; compound 12.207 nM, Fig. 2c raw Alpha reads): 86818 and 83277
AlphaLISA signal, BCL-xL/PROTAC/VCB ([1]; compound 12.21 nM, Fig. 3e raw Alpha reads): 409606 and 406374
AlphaLISA signal, BCL-xL/PROTAC/VCB ([1]; compound 48.828 nM, Fig. 2c raw Alpha reads): 487236 and 509576
AlphaLISA signal, BCL-xL/PROTAC/VCB ([1]; compound 48.83 nM, Fig. 3e raw Alpha reads): 1004765 and 1011127
AlphaLISA signal, BCL-xL/PROTAC/VCB ([1]; compound 195.31 nM, Fig. 2c raw Alpha reads): 1016591 and 916263
AlphaLISA signal, BCL-xL/PROTAC/VCB ([1]; compound 195.31 nM, Fig. 3e raw Alpha reads): 1443448 and 1418663
AlphaLISA signal, BCL-xL/PROTAC/VCB ([1]; compound 781.25 nM, Fig. 2c raw Alpha reads): 880317 and 910855
AlphaLISA signal, BCL-xL/PROTAC/VCB ([1]; compound 781.25 nM, Fig. 3e raw Alpha reads): 1065855 and 975587
AlphaLISA signal, BCL-xL/PROTAC/VCB ([1]; compound 3125 nM, Fig. 2c raw Alpha reads): 660864 and 590073
AlphaLISA signal, BCL-xL/PROTAC/VCB ([1]; compound 3125 nM, Fig. 3e raw Alpha reads): 557160 and 572089
AlphaLISA signal, BCL-xL/PROTAC/VCB ([1]; compound 12500 nM, Fig. 2c raw Alpha reads): 241490 and 226854
AlphaLISA signal, BCL-xL/PROTAC/VCB ([1]; compound 12500 nM, Fig. 3e raw Alpha reads): 200468 and 154034
AlphaLISA signal, BCL-xL/PROTAC/VCB ([1]; compound 50000 nM, Fig. 2c raw Alpha reads): 34465 and 29535
AlphaLISA signal, BCL-xL/PROTAC/VCB ([1]; compound 50000 nM, Fig. 3e raw Alpha reads, 2 technical replicates): 37331 and 41699
AlphaLISA signal, BCL-xL/PROTAC/VCB ([1]; compound 200000 nM, Fig. 2c raw Alpha reads, 2 technical replicates): 19406 and 20996
293T cell viability, MTS absorbance 490 as percent of control, mean of three wells, left block of Plate 29 (293T cells; 0.00137174 uM): 100.343
293T cell viability, MTS absorbance 490 as percent of control, single replicate well, left block of Plate 29 (293T cells; 0.00137174 uM, Plate 29 normalised with blank 0.332667 and control 0.923167 of Plate 30, 0.00137174 µM): 99.4764 and 95.6851
293T cell viability, MTS absorbance 490 as percent of untreated control, single replicate well (293T cells; 0.00137174 uM): 104.404 and 98.1429 and 94.4287
293T cell viability, MTS absorbance 490 as percent of control, mean of three wells, left block of Plate 29 (293T cells; 0.00411523 uM): 98.6099
293T cell viability, MTS absorbance 490 as percent of control, single replicate well, left block of Plate 29 (293T cells; 0.00411523 uM, Plate 29 normalised with blank 0.332667 and control 0.923167 of Plate 30, 0.00411523 µM): 96.0101 and 96.1184
293T cell viability, MTS absorbance 490 as percent of untreated control, single replicate well (293T cells; 0.00411523 uM): 102.282 and 94.7471 and 94.8532
293T cell viability, MTS absorbance 490 as percent of control, mean of three wells, left block of Plate 29 (293T cells; 0.037037 uM): 101.101
293T cell viability, MTS absorbance 490 as percent of control, single replicate well, left block of Plate 29 (293T cells; 0.037037 uM, Plate 29 normalised with blank 0.332667 and control 0.923167 of Plate 30, 0.037037 µM): 93.0854 and 104.134
293T cell viability, MTS absorbance 490 as percent of untreated control, single replicate well (293T cells; 0.037037 uM): 91.8819 and 102.706
293T cell viability, MTS absorbance 490 as percent of control, mean of three wells, left block of Plate 29 (293T cells; 0.111111 uM): 100.235
293T cell viability, MTS absorbance 490 as percent of control, single replicate well, left block of Plate 29 (293T cells; 0.111111 uM, Plate 29 normalised with blank 0.332667 and control 0.923167 of Plate 30, 0.111111 µM): 95.1435 and 95.2519
293T cell viability, MTS absorbance 490 as percent of untreated control, single replicate well (293T cells; 0.111111 uM): 93.8981 and 94.0042
293T cell viability, MTS absorbance 490 as percent of control, mean of three wells, left block of Plate 29 (293T cells; 0.333333 uM): 99.5125
293T cell viability, MTS absorbance 490 as percent of control, single replicate well, left block of Plate 29 (293T cells; 0.333333 uM, Plate 29 normalised with blank 0.332667 and control 0.923167 of Plate 30, 0.333333 µM): 112.042 and 98.7182 and 87.7776
293T cell viability, MTS absorbance 490 as percent of untreated control, single replicate well (293T cells; 0.333333 uM): 110.453 and 97.4001 and 86.682
